US8680058B2, “Selectively targeted antimicrobial peptides and the use thereof” (priority 2006, dated 2014)
Read-outs that look alike come from different tables or passages of the source. No end group written: not given here.

How the values were obtained:
S. mutans UA159 = experiment: Time-kill (bactericidal kinetics), planktonic S. mutans; assay type: cell-based, Streptococcus mutans; details: 25 μM, 1 min exposure
Method: 1.4 Determination of bactericidal kinetics. To determine the short term killing rate and selectivity of C16G2 and G2 we performed time-kill experiments, essentially as described previously (Eckert et al., 2006). S. mutans UA159, S. gordonii, or S. sanguinis were grown to log phase and diluted to ˜1×10^5 cfu/mL in growth medium. Under aerobic conditions, 25 μM G2 or C16G2 was added to the cell suspension and incubated at 25° C. At 1 min, 10 μL of cell suspension was removed, rescued by dilution into growth medium (1:50) and kept on ice. For plating, 20-500 μL of rescued cells were spread on growth medium agar plates and colonies were counted after overnight incubation at 37° C. under anaerobic conditions. We considered 60 cfu/mL as the detection limit for this assay. Values of surviving cfu/mL were expressed as the ratio of survivors from C16G2-treated cultures to cfu/mL from samples exposed to G2.

S. sanguinis biofilms = experiment: Single-species biofilm regrowth after peptide exposure, S. sanguinis; assay type: cell-based; details: 25 μM peptide, 1 min exposure
Method: (§1) 1.5 Examination of antimicrobial activity against single-species biofilms. To initiate biofilm formation, ˜1×10^7 bacteria per well (from overnight cultures) were seeded in TH medium (100 μL) to a 96-well flat-bottom plate. For all streptococci except S. mutans, the medium was supplemented with 0.5% (w/v) mannose and glucose. S. mutans UA159 biofilms were grown with 0.5% (w/v) sucrose. Plates were then centrifuged briefly to pellet the cells, and bacteria were incubated for 3-4 hours at 37° C. for biofilm formation. After incubation, the supernatant was carefully removed and biofilms were treated with 25 μM peptide in 1×PBS or 1×PBS alone for 1 min. The peptide solution was then removed and 100 μL TH was added to further dilute any remaining peptide. To minimize biofilm loss, cells were briefly centrifuged after TH addition, after which the supernatants were removed and fresh medium plus appropriate sugars were returned. Cells were then incubated anaerobically at 37° C. and biofilm growth was monitored over time by measuring absorbance at OD600 with a microplate spectrophotometer (Benchmark Plus, BioRad).

[1] = system: S. mutans JM11 within a multi-species biofilm; experiment: Multi-species biofilm in saliva, luciferase readout of S. mutans JM11; assay type: cell-based, Streptococcus mutans; details: 25 μM in saliva, 5 min exposure
Method: 1.6 Evaluation of antimicrobial activity against bacterial biofilm in saliva. For these experiments, we employed methods similar to those previously described (Bleher et al., 2003). A day prior to the assay, saliva was collected and pooled from 5 adult volunteers in the laboratory, diluted 1:4 in TH broth and centrifuged 2,000×g for 10 min. The supernatant was then filter sterilized (0.2 μm filter, Nunc) and stored at 4° C. A portion of pooled saliva was also diluted 1:2 in 1×PBS and processed as before. On the day of the assay, overnight cultures of JM11 and other oral streptococci were normalized to OD600 1.0 and ˜3×10^6 cfu/mL of each species was added to 10 mL of the TH-diluted saliva. […] At each time point, total biofilm growth was measured by reading absorbance at OD600, and the health of S. mutans within the population examined by relative luciferase expression (relative light unit, (RLU) production), as described previously (Merritt et al., 2005). […] RLU production was measured using a TD 20/20 luminometer (Turner Biosystems) and reported values were obtained from the average of 3 independent samples. […]
1.9 C16G2 can selectively eliminate S. mutans from a mixed species biofilm. […] The mixed-species biofilms were formed with saliva, and then peptides (25 μM) suspended in saliva were added for 5 min and removed, and the post-treatment growth of the biofilm was further monitored. […]

S. sanguinis = assay type: cell-based, S. sanguinis NY101
Method: (§2) 1.3 Determination of antimicrobial activity. The general antimicrobial activity of peptides against planktonic bacteria was determined by a MIC assay in TH broth (all oral streptococci) (Qi et al., 2005).
(§3) S. mutans, S. gordonii Challis (DL1), and S. sanguinis NY101 strains were grown in Todd Hewitt (TH, Fisher) broth medium at 37° C. under anaerobic conditions (80% N2, 10% CO2, and 10% H2). S. mutans strains UA159 (Ajdic et al., 2002), ATCC 25175, and T8 (Rogers, 1975), are wild-type clinical isolates, while comD is a knockout mutant that was constructed previously from the wild-type UA140 background (Qi et al., 2005). Luciferase expressing S. mutans strain JM11 was constructed from UA140 as described (Merritt et al., 2005). Exponentially growing bacterial cells were diluted to ˜1×10^5 cfu/mL in TH and placed into 96-well plates (Fisher). Peptides were then serially diluted and added to the bacteria.

S. gordonii = assay type: cell-based, S. gordonii Challis (DL1)
Method: as §2, §3

S. gordonii biofilms = experiment: Single-species biofilm regrowth after peptide exposure, S. gordonii; assay type: cell-based; details: 25 μM peptide, 1 min exposure
Method: as §1

S. mutans = assay type: cell-based, Streptococcus mutans
Method: as §2, §3

## TFFRLFNRSFTQALGKGGGKNLRIIRKGIHIIKKY-NH2 [Peptide C16G2]
S. mutans UA159
  activity in comparison to G2 (surviving cfu/mL): over 20 fold
S. sanguinis biofilms
  biofilm re-growth after treatment (OD600): grew similarly to untreated biofilms
[1]
  S. mutans population within mixed-species biofilm (luciferase activity, RLU/OD600): dramatically reduce the S. mutans population
  duration of selective inhibition of S. mutans growth within multi-species biofilm: ≥ 2 h
S. sanguinis
  MIC: 19.1 ± 4.0 µM
S. sanguinis; MIC, S. sanguinis
  difference in susceptibility between G2 and C16G2: ≤ 2 fold
S. gordonii
  MIC: 23.5 ± 7.8 µM
S. gordonii; MIC, S. gordonii
  difference in susceptibility between G2 and C16G2: ≤ 2 fold
S. gordonii biofilms
  biofilm re-growth after treatment (OD600): grew similarly to untreated biofilms
S. mutans; MIC, S. mutans strains
  increase in antimicrobial activity over the parental antimicrobial peptide G2: 4-5 fold
S. mutans; S. mutans 25175
  MIC: 3.8 ± 0.3 µM
S. mutans; S. mutans T8
  MIC: 3.7 ± 0.2 µM
S. mutans; S. mutans UA159
  MIC: 3.0 ± 1.6 µM
S. mutans; S. mutans comD
  MIC: 5.1 ± 2.4 µM
